Reference: PMC11784145, “Efficacy and in vitro pharmacological assessment of novel N-hydroxypyridinediones as hepatitis B virus ribonuclease H inhibitors” (Antimicrobial Agents and Chemotherapy, 2024)
Values joined by “and” are separate entries in the source; they are usually repeats but may differ in a detail not shown here. Equal entries are not always repeated.

Assays:
[1] = tested on: HBV plus-polarity DNA in hepDES19 cells; assay: Effect of plasma proteins on compound potency; type: cell-based, hepatitis B virus; conditions: 10 µM compound, 72 h, media with BSA to 40 mg/mL versus 10% FBS (0.25 mg/mL BSA)
Method: HBV plus-polarity DNA suppression was assessed in hepDES19 cells following compound treatment for 72 h. Cells incubated with compound (10 µM) in either normal tissue culture media conditions containing 10% FBS, or in media supplemented with bovine serum albumin (BSA) to 40 mg/mL. Percent inhibition was determined, as described previously ([27], [28]). The presence of increased BSA levels was determined to affect compound potency if there was a statistically significant decrease in percent HBV plus polarity DNA suppression when compared to cells treated with compound in normal media conditions. Three or more replicate assays were performed on separate days.

CYP2D6 = biological target: T1, CYP2D6 (Homo sapiens, UniProt P10635); assay: Cytochrome P450 inhibition, Vivid 2D6 EOMCC Blue kit; type: in vitro ADME; conditions: for IC50: dose-response 50 µM to 3 nM, mean ± SD
T1 construct: purchased Thermo Fisher Vivid 2D6 EOMCC Blue
Method: Compound inhibition of Cytochrome P (CYP) 3A4, 2C9, and 2D6 was determined using Vivid CYP450 screening kits (Thermo Fisher) according to the manufacturer’s instructions, as described previously ([27]). The kits employed were: Vivid 3A4 DBOMF Green, 2C9 BOMF Green, and 2D6 EOMCC Blue. Reactions were initiated by addition of the fluorophore-conjugated substrates with Vivid NADP^+ and were conducted at 37°C using either a Biotek Synergy HTX multi-mode plate reader with 485/20 nm excitation and 520/20 nm emission filters (green-fluorescent substrate), or a Tecan Spark plate reader with monochromator settings at 415/20 nm excitation and 460/20 nm emission (blue-fluorescent substrate) defined by the Center Wavelength/band-pass values. Substrate cleavage was detected every 60 s.
Compounds were initially screened against each enzyme at 10 µM and maximum rates of fluorescence in RFU were calculated using the Biotek Gen5 v3.11 software. Percent inhibition of experimental compound reactions was normalized to the rate to DMSO vehicle reactions. Positive controls used were: CYP3A4—ketoconazole (Sigma Aldrich), CYP2C9—sulfaphenazole (Cayman Chemical), and CYP2D6—quinidine (Fisher Scientific). Dose-response curves were generated for compounds that inhibited an enzyme by ≥50% using titrated concentrations of compound (50 µM to 3 nM) or 1% DMSO. IC50 values were determined using the four-parameter log[inhibitor] versus response algorithm in GraphPad Prism. Qualitative screens and dose-response curves were each performed in triplicate on different days.

[2] = Solubility limit, turbidimetric assay; type: physicochemical; conditions: upper limit 200 µM
Method: Solubility limits were determined by a turbidimetric assay, as described ([27]), with the solubility limit being defined as the compound concentration where light scattering began to rise. Two or more replicate assays were performed for each compound at each pH on different days.

CYP3A4 mRNA expression = assay: CYP3A4 induction, RT-qPCR in HepG2 cells; conditions: 10 µM, 24 or 48 h, normalized to GAPDH and DMSO
Method: HepG2 cells were seeded on 12-well, tissue-culture-treated plates (Sarstedt) at 2.5 × 10^5 cells/well for 24 h. Cells were treated with 10 µM compound or 1% DMSO for 48 h with replenishment at 24 h. Cells were rinsed with PBS and lysed at 0, 24, and 48 h using TRI Reagent (Sigma Aldrich). […] Cellular DNA was degraded using DNase I (Invitrogen), according to the manufacturer’s instructions.
Complementary DNA (cDNA) synthesis employed the ProtoScript II First Strand cDNA Synthesis Kit (New England Biolabs) according to the manufacturer’s instructions with an additional incubation step at 25°C for 5 min. Reverse transcriptase-qPCR (RT-qPCR) was performed using a Quantstudio 5 (Thermo Fisher) in a final reaction volume of 20 µL with 4 µL cDNA template, 2× KAPA probe force master mix (Roche), 300 nM probe, and 100 nM forward and reverse primer. CYP3A4 expression was determined by normalizing the experimental sample cycle threshold values to DMSO-treated wells. GAPDH was used as a housekeeping gene.

[3] = tested on: primary human hepatocytes (PHHs); assay: Primary human hepatocyte cytotoxicity (MTS assay); type: cell-based; conditions: 72 h, highest concentration tested 100 µM, mean ± SD, read-out: PHH CC50
Method: PHH cytotoxicity was determined by MTS assays following 72 h compound exposure, as described in Woodson et al. ([27]).

[4] = pH 5 (fed simulated intestinal fluid)
[5] = pH 6.5 (fasted simulated intestinal fluid)

T1 sequence (P10635 whole entry): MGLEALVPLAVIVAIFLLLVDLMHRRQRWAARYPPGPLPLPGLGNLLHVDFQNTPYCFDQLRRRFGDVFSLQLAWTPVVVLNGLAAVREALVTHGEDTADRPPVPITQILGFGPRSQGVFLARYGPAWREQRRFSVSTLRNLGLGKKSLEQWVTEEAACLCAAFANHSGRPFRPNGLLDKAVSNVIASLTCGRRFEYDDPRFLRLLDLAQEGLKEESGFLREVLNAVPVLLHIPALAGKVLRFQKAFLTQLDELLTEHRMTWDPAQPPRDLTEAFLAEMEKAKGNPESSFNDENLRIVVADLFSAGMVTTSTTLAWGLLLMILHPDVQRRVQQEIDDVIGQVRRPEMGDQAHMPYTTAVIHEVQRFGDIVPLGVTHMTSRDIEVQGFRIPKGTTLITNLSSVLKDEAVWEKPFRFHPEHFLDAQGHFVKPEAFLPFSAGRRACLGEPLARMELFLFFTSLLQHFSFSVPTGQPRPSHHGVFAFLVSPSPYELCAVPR

| SMILES | Effect of increased albumin on HBV plus polarity DNA suppression [1] | IC50 (CYP2D6) [µM] | Average Sol (solubility limit) [2, 4] [µM] | Sol 1 (solubility limit) ([2]; pH 5, replicate 1) [µM] | Sol 2 (solubility limit) ([2]; pH 5, replicate 2) [µM] | Average Sol (solubility limit) [2, 5] [µM] | Sol 1 (solubility limit) ([2]; pH 6.5, replicate 1) [µM] | Sol 2 (solubility limit) ([2]; pH 6.5, replicate 2) [µM] | Average Sol (solubility limit) ([2]; pH 7.4 (DMEM-F12 with 10% FBS)) [µM] | Sol 1 (solubility limit) ([2]; pH 7.4, replicate 1) [µM] | Sol 2 (solubility limit) ([2]; pH 7.4, replicate 2) [µM] | CYP3A4 mRNA expression increase (CYP3A4 mRNA expression) [fold] | Selectivity index for CYP (CYP2D6) inhibition versus HBV EC50 (CYP2D6) | CC50 [3] [µM] | Sol 3 (solubility limit) ([2]; pH 6.5, replicate 3) [µM] |
| --- | --- | --- | --- | --- | --- | --- | --- | --- | --- | --- | --- | --- | --- | --- | --- |
| CC(=NOCc1ccc(F)c(F)c1)c1c(C)cc(=O)n(O)c1O [Compound 1617] | physiologically relevant | 4.46 | > 200 | > 200 | > 200 | > 200 | > 200 | > 200 | > 200 | > 200 | > 200 |  |  |  |  |
| CC(=NOCc1cccc(F)c1)c1c(C)cc(=O)n(O)c1O [Compound 1618] |  | 10.2 ± 4.1 | > 200 | > 200 | > 200 | > 200 | > 200 | > 200 | > 200 | > 200 | > 200 | < 2 | > 150 and 166 | 93.8 ± 10.7 | > 200 |
